According to patent US20240300980A1, “HETEROCYCLIC COMPOUNDS AS KRAS INHIBITOR, AND PREPARATION THEREFOR AND USE THEREOF IN TREATMENT” (SHANGHAI KECHOW PHARMA, INC., priority 2021, published 2024):
pIC50: −log10 of the molar value.

System: AGS cells (KRAS^G12D)
Assay: Detection of cell proliferation in vitro by MTT/MTS method (cell activity experiment)
Assay type: cell-based
Details: Homo sapiens, AGS, 72 h, AGS cells; MTT/MTS; 3 days of drug treatment; read-out: AGS IC50
Method in brief: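 KRAS G12D AGS cells seeded at 1000 per well, compound added 24 h later, 0.5% final DMSO. Viability read after 3 days of treatment by MTT (solubilised in DMSO) or MTS, 4 h, absorbance 490 nm. IC50 from dose–response curves versus DMSO control.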

Compared with `Oc1cc(-c2ccc3c(N4C[C@H]5CC[C@@H](C4)N5)nc(OC[C@@]45CCCN4C[C@H](F)C5)nc3n2)c2c(F)cccc2c1` [Example 143, 4-(4-((1R,5S)-3,8-diazabicyclo[3.2.1]octan-3-yl)-2-(((2R,7aS)-2-fluorotetrahydro-1H-pyrrolizin-7a(5H)-yl)methoxy)pyrido[2,3-d]pyrimidin-7-yl)-5-fluoronaphthalen-2-ol], `C#Cc1cccc2cc(O)cc(-c3ccc4c(N5CC6CCCC(C5)N6)nc(OC[C@@]56CCCN5C[C@H](F)C6)nc4c3F)c12` [Example 106, 4-(4-(3,9-diazabicyclo [3.3.1]nonan-3-yl)-8-fluoro-2-(((2R,7aS)-2-fluorotetrahydro-1H-pyrrolizin-7a(5H)-yl)methoxy)quinazolin-7-yl)-5-ethynylnaphthalen-2-ol] is higher in pIC50: < 5.60 for the first, 6.92 for the second.

`C#Cc1c(F)ccc2cc(O)cc(-c3ccc4c(N5CCC6(CCCS6(=O)=O)CC5)nc(OC[C@@]56CCCN5C[C@H](F)C6)nc4c3F)c12` [Example 110, 8-(7-(8-ethynyl-7-fluoro-3-hydroxynaphthalen-1-yl)-8-fluoro-2-(((2R, 7aS)-2-fluorotetrahydro-1H-pyrrolizin-7a(5H)-yl)methoxy)quinazolin-4-yl)-1-thia-8-azaspiro [4.5]decane 1,1-dioxide] and `C#Cc1c(F)ccc2cc(O)cc(-c3ccc4c(N5CC6CCCNC6C5)nc(OC[C@@]56CCCN5C[C@H](F)C6)nc4c3F)c12` (stereo partly drawn) [Example 112, 5-ethynyl-6-fluoro-4-(8-fluoro-2-(((2R,7aS)-2-fluorotetrahydro-1H-pyrrolizin-7a(5H)-yl)methoxy)-4-(octahydro-6H-pyrrolo[3,4-b]pyridin-6-yl)quinazolin-7-yl) naphthalen-2-ol] cannot be ordered by pIC50: < 5.60 for the first, < 5.60 for the second.

Going from `Oc1cc(N2CCc3c(nc(OC[C@@]45CCCN4C[C@H](F)C5)nc3N3C[C@H]4CC[C@@H](C3)N4)C2)c2c(F)c(F)ccc2c1` [Example 204, 4-(4-((1R,5S)-3,8-diazabicyclo[3.2.1]octan-3-yl)-2-(((2R,7aS)-2-fluorotetrahydro-1H-pyrrolizin-7a(5H)-yl)methoxy)-5,8-dihydropyrido[3,4-d]pyrimidin-7(6H)-yl)-5,6-difluoronaphthalen-2-ol] to `Oc1cc(N2CCc3c(nc(OC[C@@]45CCCN4C[C@H](F)C5)nc3N3C[C@H]4CC[C@@H](C3)N4)C2)c2c(Cl)c(F)ccc2c1` [Example 208, 4-(4-((1R,5S)-3,8-diazabicyclo[3.2.1]octan-3-yl)-2-(((2R,7aS)-2-fluorotetrahydro-1H-pyrrolizin-7a(5H)-yl)methoxy)-5,8-dihydropyrido[3,4-d]pyrimidin-7(6H)-yl)-5-chloro-6-fluoronaphthalen-2-ol], the pIC50 falls from 7.96 to 7.70 (0.26 log units). The first is the more potent here.

Compared with `C#Cc1cccc2cc(O)cc(-c3ncc4c(N5CCC6(CCCN6)CC5)nc(OC[C@@]56CCCN5C[C@H](F)C6)nc4c3F)c12` [Example 48, 5-ethynyl-4-(8-fluoro-2-(((2R,7aS)-2-fluorotetrahydro-1H-pyrrolizin-7a(5H)-yl)methoxy)-4-(1,8-diazaspiro[4.5]decan-8-yl)pyrido[4,3-d]pyrimidin-7-yl) naphthalen-2-ol], `Oc1cc(-c2ncc3c(N4C[C@H]5CC[C@@H](C4)O5)nc(OC[C@@]45CCCN4C[C@H](F)C5)nc3c2F)c2c(F)cccc2c1` [Example 15, 4-(4-((1R,5S)-8-oxa-3-azabicyclo[3.2.1]octan-3-yl)-8-fluoro-2-(((2R,7aS)-2-fluorotetrahydro-1H-pyrrolizin-7a(5H)-yl)methoxy)pyrido[4,3-d]pyrimidin-7-yl)-5-fluoronaphthalen-2-ol] is 1.20 log units higher in pIC50: 5.29 for the first, 6.49 for the second.

Going from `CSC1CCCc2cc(O)cc(-c3ncc4c(N5C[C@H]6CC[C@@H](C5)N6)nc(OC[C@@]56CCCN5C[C@H](F)C6)nc4c3F)c21` (stereo partly drawn) [Example 426, 4-(4-((1R,5S)-3,8-diazabicyclo[3.2.1]octan-3-yl)-8-fluoro-2-(((2R,7aS)-2-fluorotetrahydro-1H-pyrrolizin-7a(5H)-yl)methoxy)pyrido[4,3-d]pyrimidin-7-yl)-5-(methylthio)-5,6,7,8-tetrahydronaphthalen-2-ol] to `C#Cc1cc2c(N3C[C@H]4CC[C@@H](C3)N4)nc(OC[C@@]34CCCN3C[C@H](F)C4)nc2c(F)c1-c1cc(O)cc2c1C(C)CCC2` (stereo partly drawn) [Example 374, 4-(4-((1R,5S)-3,8-diazabicyclo[3.2.1]octan-3-yl)-6-ethynyl-8-fluoro-2-(((2R,7aS)-2-fluorotetrahydro-1H-pyrrolizin-7a(5H)-yl)methoxy)quinazolin-7-yl)-5-methyl-5,6,7,8-tetrahydronaphthalen-2-ol], the pIC50 falls from 7.82 to 7.49 (0.33 log units). The first is the more potent here.

Going from `Oc1cc(-c2ccc3c(N4C[C@H]5CC[C@@H](C4)S5)nc(OC[C@@]45CCCN4C[C@H](F)C5)nc3c2F)c2c(F)c(F)ccc2c1` [Example 164, 4-(4-((1R,5S)-8-thia-3-azabicyclo[3.2.1]octan-3-yl)-8-fluoro-2-(((2R,7aS)-2-fluorotetrahydro-1H-pyrrolizin-7a(5H)-yl)methoxy)quinazolin-7-yl)-5,6-difluoronaphthalen-2-ol] to `C#Cc1c(F)ccc2cc(O)cc(-c3ccc4c(N5CC(C(C)N)C5)nc(OC[C@@]56CCCN5C[C@H](F)C6)nc4c3F)c12` (stereo partly drawn) [Example 213, 4-(4-(3-(1-aminoethyl)azetidin-1-yl)-8-fluoro-2-(((2R,7aS)-2-fluorotetrahydro-1H-pyrrolizin-7a(5H)-yl)methoxy)quinazolin-7-yl)-5-ethynyl-6-fluoronaphthalen-2-ol], the pIC50 falls from 6.52 to < 5.60.

`CC1CCCc2cc(O)cc(-c3cc4nc(OC[C@@]56CCCN5C[C@H](F)C6)nc(N5C[C@H]6CC[C@@H](C5)N6)c4c4occc34)c21` (stereo partly drawn) [Example 387, 4-(9-((1R,5S)-3,8-diazabicyclo[3.2.1]octan-3-yl)-7-(((2R,7aS)-2-fluorotetrahydro-1H-pyrrolizin-7a(5H)-yl)methoxy)furo[2,3-f]quinazolin-4-yl)-5-methyl-5,6,7,8-tetrahydronaphthalen-2-ol] and `Oc1cc2c(c(-c3ccc4c(N5C[C@H]6CC[C@@H](C5)N6)nc(OC[C@@]56CCCN5C[C@H](F)C6)nc4c3F)c1)C=CC2` [Example 306, 4-(4-((1R,5S)-3,8-diazabicyclo[3.2.1]octan-3-yl)-8-fluoro-2-(((2R,7aS)-2-fluorotetrahydro-1H-pyrrolizin-7a(5H)-yl)methoxy)quinazolin-7-yl)-1H-inden-6-ol] are within 0.2 log units of each other in pIC50: 6.32 for the first, 6.44 for the second.

`C#Cc1c(F)ccc2cc(O)cc(-c3c(Cl)cc4c(N5C[C@H]6CC[C@@H](C5)N6)nc(OC[C@@]56CCCN5C[C@H](F)C6)nc4c3OC3CC3)c12` [Example 330, 4-(4-((1R,5S)-3,8-diazabicyclo[3.2.1]octan-3-yl)-6-chloro-8-cyclopropoxy-2-(((2R,7aS)-2-fluorotetrahydro-1H-pyrrolizin-7a(5H)-yl)methoxy)quinazolin-7-yl)-5-ethynyl-6-fluoronaphthalen-2-ol] and `C#Cc1c(F)ccc2cc(O)cc(-c3ccc4c(N5C[C@H]6CC[C@@H](C5)N6)nc(OC[C@@]56CCCN5C[C@H](F)C6)nc4c3OC3CC3)c12` [Example 327, 4-(4-((1R,5S)-3,8-diazabicyclo[3.2.1]octan-3-yl)-8-cyclopropoxy-2-(((2R,7aS)-2-fluorotetrahydro-1H-pyrrolizin-7a(5H)-yl)methoxy)quinazolin-7-yl)-5-ethynyl-6-fluoronaphthalen-2-ol] are within 0.2 log units of each other in pIC50: 6.71 for the first, 6.64 for the second.

First: CC1OCCc2cc(O)cc(-c3c4c(c5c(N6C[C@H]7CC[C@@H](C6)N7)nc(OC[C@@]67CCCN6C[C@H](F)C7)nc5c3F)OCO4)c21 (stereo partly drawn) [Example 392, 8-(9-((1R,5S)-3,8-diazabicyclo[3.2.1]octan-3-yl)-5-fluoro-7-(((2R,7aS)-2-fluorotetrahydro-1H-pyrrolizin-7a(5H)-yl)methoxy)-[1,3]dioxolo[4,5-f]quinazolin-4-yl)-1-methylisochroman-6-ol]
Second: Cc1cc(N)nc(-c2ncc3c(N4C[C@H]5CC[C@@H](C4)N5)nc(OC[C@@]45CCCN4C[C@H](F)C5)nc3c2F)c1C(F)(F)F [Example 41, 6-(4-((1R,5S)-3,8-diazabicyclo[3.2.1]octan-3-yl)-8-fluoro-2-(((2R,7aS)-2-fluorotetrahydro-1H-pyrrolizin-7a(5H)-yl)methoxy)pyrido[4,3-d]pyrimidin-7-yl)-4-methyl-5-(trifluoromethyl) pyridin-2-amine]
The pIC50 of the first is higher: 6.96 for the first, < 5.60 for the second.

`C#Cc1c(F)ccc2cc(O)cc(-c3ncc4c(C5C[C@H]6CC[C@@H](C5)N6)nc(OC[C@@]56CCCN5C[C@H](F)C6)nc4c3F)c12` (stereo partly drawn) [Example 79, 4-(4-((1R,5S)-8-azabicyclo[3.2.1]octan-3-yl)-8-fluoro-2-(((2R,7aS)-2-fluorotetrahydro-1H-pyrrolizin-7a(5H)-yl)methoxy)pyrido[4,3-d]pyrimidin-7-yl)-5-ethynyl-6-fluoronaphthalen-2-ol] and `C#Cc1c(F)ccc2cc(O)cc(-c3ncc4c(N5C[C@H]6CC[C@@H](C5)N6)nc(OCC56CC5CCN6C)nc4c3F)c12` (stereo partly drawn) [Example 77, 4-(4-((1R,5S)-3,8-diazabicyclo[3.2.1]octan-3-yl)-8-fluoro-2-((2-methyl-2-azabicyclo[3.1.0]hexan-1-yl)methoxy)pyrido [4,3-d]pyrimidin-7-yl)-5-ethynyl-6-fluoronaphthalen-2-ol] cannot be ordered by pIC50: < 5.60 for the first, < 5.60 for the second.

`O=S1(=O)[C@@H]2CC[C@H]1CN(c1nc(OC[C@@]34CCCN3C[C@H](F)C4)nc3c(F)c(-c4cc(O)cc5cccc(F)c45)ccc13)C2` [Example 169, (1R,5S)-3-(8-fluoro-7-(8-fluoro-3-hydroxynaphthalen-1-yl)-2-(((2R,7aS)-2-fluorotetrahydro-1H-pyrrolizin-7a(5H)-yl)methoxy)quinazolin-4-yl)-8-thia-3-azabicyclo[3.2.1]octane 8,8-dioxide] and `C#Cc1c(F)ccc2cc(O)cc(-c3ccc4c(N5CC(C(N)=O)C5)nc(OC[C@@]56CCCN5C[C@H](F)C6)nc4c3F)c12` [Example 215, 1-(7-(8-ethynyl-7-fluoro-3-hydroxynaphthalen-1-yl)-8-fluoro-2-(((2R,7aS)-2-fluorotetrahydro-1H-pyrrolizin-7a(5H)-yl)methoxy)quinazolin-4-yl)azetidine-3-carboxamide] cannot be ordered by pIC50: < 5.60 for the first, < 5.60 for the second.
